Assay results reported in ChEMBL document CHEMBL1127004, “Structure-based design and pharmacological properties of potent selective and systemically active CCK-B peptidomimetics” (Bioorg Med Chem Lett, 1993).
Non-standard residues stand in square brackets, D forms with d. Residues, ends and D or L forms follow the SMILES beside them. *: point of attachment. 1Nal = N[C@@H](Cc1cccc2ccccc12)C(=O)O; Phg = N[C@H](C(=O)O)c1ccccc1; Boc = CC(C)(C)OC(=O)*

These compounds were tested against T1, Cholecystokinin receptor type A (Cavia porcellus, UniProt Q63931) (assay: Tested for the inhibition of [3H]pCCK-8 binding to Cholecystokinin type A receptor in pancreatic membranes of guinea-pig).
T1 sequence (Q63931 whole entry): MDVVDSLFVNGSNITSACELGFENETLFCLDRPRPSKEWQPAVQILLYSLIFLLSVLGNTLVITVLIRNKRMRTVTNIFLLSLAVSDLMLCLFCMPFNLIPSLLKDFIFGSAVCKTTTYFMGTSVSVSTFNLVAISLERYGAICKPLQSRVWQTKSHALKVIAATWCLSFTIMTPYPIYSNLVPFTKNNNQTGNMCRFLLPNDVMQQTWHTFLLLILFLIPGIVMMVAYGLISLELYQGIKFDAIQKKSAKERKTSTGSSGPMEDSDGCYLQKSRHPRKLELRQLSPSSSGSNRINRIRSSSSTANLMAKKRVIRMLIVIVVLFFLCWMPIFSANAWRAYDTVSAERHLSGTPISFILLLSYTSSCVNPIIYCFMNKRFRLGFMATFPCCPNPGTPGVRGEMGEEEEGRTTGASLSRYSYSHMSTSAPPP
Assay type: cell membranes

In order of rising Ki:
1. CN(C)C(=O)[C@H](Cc1cccc2ccccc12)NC(=O)[C@H](CC(=O)O)NC(=O)[C@@H](NC(=O)[C@H](Cc1c[nH]c2ccccc12)NC(=O)OC(C)(C)C)c1ccccc1 (Boc-W[Phg]D[1Nal]-NMe2)  1000 nM
2. CCCC[C@@H](NC(=O)CC(=O)N[C@@H](Cc1c[nH]c2ccccc12)C(=O)N(C)[C@@H](CCCC)C(=O)N[C@@H](CC(=O)O)C(=O)N[C@@H](Cc1ccccc1)C(N)=O)NC(=O)[C@H](Cc1ccc(CS(=O)(=O)O)cc1)NC(=O)OC(C)(C)C  1100 nM
3. CC(C)(C)OC(=O)N[C@@H](Cc1c[nH]c2ccccc12)C(=O)N[C@H](C(=O)N[C@@H](CC(=O)O)C(=O)N[C@@H](Cc1cccc2ccccc12)C(N)=O)c1ccccc1 (Boc-W[Phg]D[1Nal]-NH2)  1100 nM
4. CC(C)(C)OC(=O)N[C@@H](Cc1c[nH]c2ccccc12)C(=O)N[C@@H](Cc1ccccc1)C(=O)N[C@@H](CC(=O)O)C(=O)N[C@@H](Cc1cccc2ccccc12)C(N)=O (Boc-WFD[1Nal]-NH2)  2400 nM
